Structures are written as SMILES.

The target of the test is T1, IRAK4 protein in normal human PBMCs (Homo sapiens, UniProt Q9NWZ3).
T1 construct: host or cells: normal human PBMCs
T1 sequence (Q9NWZ3 1-460): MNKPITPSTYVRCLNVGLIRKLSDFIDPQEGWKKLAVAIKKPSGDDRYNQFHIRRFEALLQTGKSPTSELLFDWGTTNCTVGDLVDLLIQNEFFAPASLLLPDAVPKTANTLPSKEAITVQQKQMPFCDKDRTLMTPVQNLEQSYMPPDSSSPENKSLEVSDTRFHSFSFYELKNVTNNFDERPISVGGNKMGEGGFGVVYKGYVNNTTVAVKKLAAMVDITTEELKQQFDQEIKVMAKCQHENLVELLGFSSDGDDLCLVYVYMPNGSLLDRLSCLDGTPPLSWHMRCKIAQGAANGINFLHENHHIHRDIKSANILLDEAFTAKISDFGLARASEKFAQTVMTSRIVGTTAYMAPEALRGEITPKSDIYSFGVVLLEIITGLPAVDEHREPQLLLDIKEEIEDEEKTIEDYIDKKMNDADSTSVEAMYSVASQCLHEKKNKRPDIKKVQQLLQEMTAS
Briefly: Degradation of IRAK4 protein in normal human PBMCs (AlphaLISA). It is filed as cell-based. Particulars: 24 h incubation. The method, then: The cryopreserved normal human PBMCs (Milestone, PB010C) were thawed and resuspended in RPMI 1640 medium (Gibco, A1049101) supplemented with 10% fetal bovine serum (Gibco, 10099141), 100 U/mL penicillin, and 100 µg/mL streptomycin (Gibco, 15140122). After 0.95 mL of cells were plated in each well of a 24-well cell culture plate, 50 µL of diluted compound solution was added to corresponding wells with cells, such that the final concentration of the compound fell within the range of 0.01-3000 nM. The final concentration of DMSO was 0.25%. After the compound-treated cell plate was incubated in an incubator at 37° C. with 5% CO2 for 24 h, the cells were collected into 1.5 mL centrifuge tubes and centrifuged at 1000 rpm at 4° C. for 5 min. The cell pellets were washed twice with 1×DPBS. The resuspended cells were lysed with 100 μL of lysis buffer, left to stand on ice for 30 min, and then centrifuged at 14000 g at 4° C. for 10 min. The samples of the cell lysate supernatant after centrifugation were cryopreserved at −80° C. before testing. The cell lysis buffer was a Western and IP cell lysis buffer (Beyotime, P0013) supplemented with 1 mM phenylmethylsulfonyl fluoride and a protease inhibitor cocktail (Beyotime, P1008).
The total protein concentrations of the cell lysate samples were determined using a BCA protein quantification kit (Tiangen, PA115-02).
The prepared PBMC lysate samples were assayed for IRAK4 concentrations using a human IRAK4 AlphaLISA assay kit (PerkinElmer, AL3117C) to determine the degradation effects of the compounds on IRAK4. The method is as follows:
5 μL of each of IRAK4 standard solutions with different concentrations and test samples of cell lysate supernatant were added to a white 384-well plate (PerkinElmer, 6007299), and then 10 μL of 5× anti-IRAK4 […] beads was added to each well (final concentration of 10 μg/mL). The plate was incubated at room temperature for 30 min. Then 10 μL of 5× biotin-labeled anti-IRAK4 antibody was added to each well (final concentration of 1 nM), and the plate was incubated at room temperature for another 60 min. Finally, 25 μL of 2× streptavidin-labeled donor beads was added to each well (final concentration of 40 μg/mL), and the plate was incubated at room temperature for another 30 min. After the incubation was completed, AlphaLISA signal values were measured on a microplate reader EnVision (PerkinElmer, 2105) in the AlphaScreen standard mode. A standard curve was plotted from the AlphaLISA signal values of the IRAK4 standard solutions with different concentrations, and the IRAK4 concentration of each cell lysate supernatant was determined according to the corresponding concentrations on the standard curve for the AlphaLISA signal values of the test samples and by performing corresponding correction on the total protein concentration of each sample obtained by BCA quantification. The degradation rates for the compounds at each concentration were calculated by comparing the IRAK4 concentration with that of the control group. Then non-linear curve fittings for logarithmic concentration-inhibition rate were performed using GraphPad Prism 8, and the DC50 and Dmax values of the compound were obtained.
In general, DC50 refers to the concentration giving 50% degradation. Higher therefore signals degradation only at high concentration. In general, Dmax refers to the greatest extent of degradation seen. For the compound `Cc1ccc(C(=O)N2CCC3(CCC(CN4CCC(n5cc(NC(=O)c6cnn7ccc(N8CCS(=O)(=O)CC8)nc67)c(C(F)F)n5)CC4)CC3)CC2)cc1N1CCC(=O)NC1=O` [Example 22, N-(3-(difluoromethyl)-1-(1-((3-(3-(2,4-dioxotetrahydropyrimidin-1(2H)-yl)-4-methylbenzoyl)-3-azaspiro[5.5]undecan-9-yl)methyl)piperidin-4-yl)-1H-pyrazol-4-yl)-5-(1,1-dioxothiomorpholinyl)pyrazolo[1,5-a]pyrimidine-3-carboxamide], half-maximal degradation (DC50) was put at 0.53 nM and the Dmax was 98.1%.

For `Cc1ccc(C(=O)N2CCC3(CCC(CN4CCC(n5cc(NC(=O)c6cnn7ccc(N8CCC[C@H](N)C8)nc67)c(C(F)F)n5)CC4)CC3)CC2)cc1N1CCC(=O)NC1=O` [Example 23, (S)-5-(3-aminopiperidin-1-yl)-N-(3-(difluoromethyl)-1-(1-((3-(3-(2,4-dioxotetrahydropyrimidin-1(2H)-yl)-4-methylbenzoyl)-3-azaspiro[5.5]undecan-9-yl)methyl)piperidin-4-yl)-1H-pyrazol-4-yl)pyrazolo[1,5-a]pyrimidine-3-carboxamide], the 50% degradation concentration (DC50) was found to be 2.17 nM and the Dmax stood at 99%.

Take `Cc1ccc(C(=O)N2CCC3(CCC(CN4CCC(n5cc(NC(=O)c6cnn7ccc(N8CC9(COC9)C8)nc67)c(C(F)F)n5)CC4)CC3)CC2)cc1N1CCC(=O)NC1=O` [Example 24, N-(3-(difluoromethyl)-1-(1-((3-(3-(2,4-dioxotetrahydropyrimidin-1(2H)-yl)-4-methylbenzoyl)-3-azaspiro[5.5]undecan-9-yl)methyl)piperidin-4-yl)-1H-pyrazol-4-yl)-5-(2-oxa-6-azaspiro[3.3]heptan-6-yl)pyrazolo[1,5-a]pyrimidine-3-carboxamide]: the half-maximal degradation concentration (DC50) came to 0.48 nM and the Dmax was 96.2%.

In the case of `Cc1ccc(C(=O)N2CCC3(CCC(CN4CCC(n5cc(NC(=O)c6cnn7ccc(N8CCC[C@H](O)C8)nc67)c(C(F)F)n5)CC4)CC3)CC2)cc1N1CCC(=O)NC1=O` [Example 25, (S)—N-(3-(difluoromethyl)-1-(1-((3-(3-(2,4-dioxotetrahydropyrimidin-1(2H)-yl)-4-methylbenzoyl)-3-azaspiro[5.5]undecan-9-yl)methyl)piperidin-4-yl)-1H-pyrazol-4-yl)-5-(3-hydroxypiperidin-1-yl)pyrazolo [1,5-a]pyrimidine-3-carboxamide], it took 0.32 nM to reach half-maximal degradation (DC50) and the Dmax came out at 97.5%.

Consider `O=C1CCN(c2cc(C(=O)N3CCC4(CCC(CN5CCC(n6cc(NC(=O)c7cnn8ccc(N9CCC[C@H](O)C9)nc78)c(C(F)F)n6)CC5)CC4)CC3)ccc2Cl)C(=O)N1` [Example 26, (S)—N-(1-(1-((3-(4-chloro-3-(2,4-dioxotetrahydropyrimidin-1(2H)-yl)benzoyl)-3-azaspiro[5.5]undecan-9-yl)methyl)piperidin-4-yl)-3-(difluoromethyl)-1H-pyrazol-4-yl)-5-(3-hydroxypiperidin-1-yl)pyrazolo[1,5-a]pyrimidine-3-carboxamide], for which it took 0.35 nM to reach half-maximal degradation (DC50) and the Dmax is 97.8%.

`COc1ccc(C(=O)N2CCC3(CCN(CCCN4CCC(n5cc(NC(=O)c6cnn7ccc(N8CCOCC8)nc67)c(C(F)F)n5)CC4)CC3)CC2)cc1N1CCC(=O)NC1=O` [Example 28, N-(3-(difluoromethyl)-1-(1-(3-(9-(3-(2,4-dioxotetrahydropyrimidin-1(2H)-yl)-4-methoxybenzoyl)-3,9-diazaspiro[5.5]undecan-3-yl)propyl)piperidin-4-yl)-1H-pyrazol-4-yl)-5-morpholinopyrazolo[1,5-a]pyrimidine-3-carboxamide]: half-maximal degradation (DC50) was put at 4.73 nM and the Dmax was determined as 107%.

The values are drawn from patent US20260174878A1, “IRAK4 DEGRADATION AGENT AND USE THEREOF” (LEADINGTAC PHARMACEUTICAL (SHAOXING) CO., LTD., priority 2022, published 2026).
